Results published in patent publication US11865182B2, “Product and process for employing GC7 (N1-guanyl-1,7-diaminoheptane) based antigen binding conjugates in cancer therapy” (priority 2017, dated 2024).

System: bi-lateral subcutaneous tumors derived from 779E cells
Assay: in-vivo analysis of ADCs cytotoxic effect in subcutaneous mouse model (loss of GFP fluorescence signal, IVIS imaging)
Conditions: nude mice, 779E subcutaneous tumors, tail vein injection, after 12 days
Method: After purification via gel chromatography, where the cytotoxicity effect of the drug on the eIF5A positive tumor cell compared to eIF5A negative cells was determined by measuring the loss of fluorescence signal of the GFP tagged tumor cells after administration of the ADC in vivo via tail vein injection in mice using an IVIS Spectrum in vivo imaging system.

N=C(N)NCCCCCCCN [GC7, N1-guanyl-1,7-diaminoheptane]
tumor growth inhibition: 0.4%
